From the Deep4Chem optical property database
Values joined by “and” are separate entries in the source; they are usually repeats but may differ in a detail not shown here. Equal entries are not always repeated. Each block holds one molecule with its values, some of them ahead of it.

Experiment: photoluminescence quantum yield (fraction); solvent given as SMILES
[1] = in c1cc(-n2c3ccccc3c3ccccc32)cc(-n2c3ccccc3c3ccccc32)c1

photoluminescence quantum yield (in CC#N): 0.0077 | photoluminescence quantum yield (in O): 0.003
SMILES: Nc1n[n+]([O-])c2cc(F)ccc2[n+]1[O-]

SMILES: CC(=O)Nc1ccc(/C=C2\OC(=O)c3cc(N)ccc32)cc1
photoluminescence quantum yield (in CC#N): 0.015 | photoluminescence quantum yield (in CC(C)=O): 0.02 | photoluminescence quantum yield (in CC(C)CO): 0.032 | photoluminescence quantum yield (in CC(C)O): 0.032 | photoluminescence quantum yield (in CCCO): 0.03 | photoluminescence quantum yield (in CCO): 0.028 | photoluminescence quantum yield (in CCOC(C)=O): 0.023 | photoluminescence quantum yield (in CCOCC): 0.04 | photoluminescence quantum yield (in CO): 0.02

photoluminescence quantum yield (in CC#N): 0.18
SMILES: Fc1cccc(-[c+]2c3ccccc3oc3ccccc32)c1

SMILES: O=Cc1c(O)c(-c2nc3ccccc3s2)cc2ccccc12
photoluminescence quantum yield (in C1CCOC1): 0.066 | photoluminescence quantum yield (in CC#N): 0.052 | photoluminescence quantum yield (in CC(C)=O): 0.053 | photoluminescence quantum yield (in CCO): 0.07 | photoluminescence quantum yield (in CCOC(C)=O): 0.068 | photoluminescence quantum yield (in CN(C)C=O): 0.077 | photoluminescence quantum yield (in CO): 0.061 | photoluminescence quantum yield (in Cc1ccccc1): 0.068 | photoluminescence quantum yield (in ClC(Cl)Cl): 0.065 | photoluminescence quantum yield (in ClCCl): 0.109

SMILES: CC1(C)c2ccccc2N(c2ccc(-c3nnc(-c4ccc(N5c6ccccc6C(C)(C)c6ccccc65)cc4)o3)cc2)c2ccccc21
photoluminescence quantum yield (in O=P(c1ccccc1)(c1ccccc1)c1ccccc1Oc1ccccc1P(=O)(c1ccccc1)c1ccccc1): 0.62

photoluminescence quantum yield (in CC#N): 0.456
SMILES: COc1ccccc1-n1nc(C#N)c(N2CCCC2)n1

SMILES: Fc1c(F)c(-n2c3ccccc3c3ccccc32)c(F)c(F)c1-c1nnc(-c2ccccc2)o1
photoluminescence quantum yield (in Cc1ccccc1): 0.27

photoluminescence quantum yield (in CO): 0.17
SMILES: Cc1ccc(-c2nc(-c3cccc(C#N)c3)[nH]c2-c2ccc(C)cc2)cc1

photoluminescence quantum yield (in CC#N): 0.041
SMILES: COC(=O)[C@@]12N=N[C@@](C(=O)OC)(C3C4CCC(C4)C31)[C@@H]1CC12 (some centres not stated)

photoluminescence quantum yield (in CC#N): 0.63
SMILES: Fc1nc(F)c(F)c(C#Cc2ccccc2C#Cc2c(F)c(F)nc(F)c2F)c1F

SMILES: CN(C)c1ccc(-c2cc(=O)c3ccccc3o2)cc1
photoluminescence quantum yield (in C1CCCCC1): 0.007 | photoluminescence quantum yield (in C1CCOC1): 1 | photoluminescence quantum yield (in CC#N): 1 and 0.96 | photoluminescence quantum yield (in CCOC(C)=O): 1 | photoluminescence quantum yield (in CCOCC): 0.87 | photoluminescence quantum yield (in CO): 0.095 | photoluminescence quantum yield (in Cc1ccccc1): 0.76

photoluminescence quantum yield (in CCO): 0.93
SMILES: Cc1ccc(C(=O)OCc2ccc3c4cccc5cccc(c6cccc2c63)c54)cc1

photoluminescence quantum yield (in ClC(Cl)Cl): 0.51
SMILES: c1ccc(-c2ccnc(-c3ccccc3)n2)cc1

photoluminescence quantum yield (in C1CCCCC1): 0.024
SMILES: c1cc2ccc3ccc4ccc5ccc1c1c2c3c4c51

photoluminescence quantum yield (in ClCCl): 0.02
SMILES: F[B-]1(F)OC(/C=C/c2ccccc2)=CC(c2ccccc2)=[O+]1

SMILES: CN(C)c1ccc(/C=C/C=C/c2nc3ccccc3s2)cc1
photoluminescence quantum yield (in CC#N): 0.0068 | photoluminescence quantum yield (in CCCCCC): 0.022 | photoluminescence quantum yield (in CCCCO): 0.0044 | photoluminescence quantum yield (in CCCO): 0.0054 | photoluminescence quantum yield (in CCO): 0.0045 | photoluminescence quantum yield (in CN(C)C=O): 0.0064 | photoluminescence quantum yield (in CO): 0.0039 | photoluminescence quantum yield (in Cc1ccccc1): 0.0088 | photoluminescence quantum yield (in ClCCl): 0.0054 | photoluminescence quantum yield (in OCC(O)CO): 0.039 | photoluminescence quantum yield (in OCCO): 0.0062

SMILES: Cc1cc(C)n2c1C=C1c3ccccc3C(c3cccn3C)=[N+]1[B-]2(F)F
photoluminescence quantum yield (in C1CCOC1): 0.96 | photoluminescence quantum yield (in CC#N): 0.97 | photoluminescence quantum yield (in CCCCCC): 0.96 | photoluminescence quantum yield (in CO): 0.98 | photoluminescence quantum yield (in Cc1ccccc1): 0.94 | photoluminescence quantum yield (in ClCCl): 0.99

SMILES: Oc1ccccc1C1=NC2c3cccc4cccc(c34)C2N1c1ccccc1 (configuration not stated)
photoluminescence quantum yield (in Cc1ccccc1): 0.009

SMILES: CCN(CC)c1ccc2cc(/C=C/C3=C4CC/C(=C\c5cc6ccc(N(CC)CC)cc6oc5=O)C4=[O+][B-](F)(F)O3)c(=O)oc2c1
photoluminescence quantum yield (in C1COCCO1): 0.3 | photoluminescence quantum yield (in CC(C)=O): 0.18 | photoluminescence quantum yield (in CCOC(C)=O): 0.2 | photoluminescence quantum yield (in CS(C)=O): 0.0068 | photoluminescence quantum yield (in Cc1ccccc1): 0.4 | photoluminescence quantum yield (in ClC(Cl)Cl): 0.22

SMILES: CCCCC(CC)CN1C(=O)C2=C(c3ccc(-c4ccc(C5=C6C(C)=CC(C)=[N+]6[B-](F)(F)n6c(C)cc(C)c65)cc4)s3)N(CC(CC)CCCC)C(=O)C2=C1c1cccs1 (configuration not stated)
photoluminescence quantum yield (in Cc1ccccc1): 0.57

photoluminescence quantum yield (in CCO): 0.02
SMILES: Cc1cc(=O)oc2cc3cc(-c4cn(Cc5ccccc5)nn4)ccc3cc12

photoluminescence quantum yield (in CCO): 0.41
SMILES: CCOC(=O)c1cc(C(=O)OCC)c2ccc(N(C)C)cc2n1

photoluminescence quantum yield (in C1CCOC1): 0.16 | photoluminescence quantum yield (in CN(C)C=O): 0.14 | photoluminescence quantum yield (in ClCCl): 0.16 | photoluminescence quantum yield (in c1ccccc1): 0.21
SMILES: F[B-]1(F)n2c(c3cc4ccccc4cc3c2-c2ccccc2)C=C2c3cc4ccccc4cc3C(c3ccccc3)=[N+]21

photoluminescence quantum yield (in C1CCCCC1): 0.94
SMILES: COc1cccc(OC)c1-c1c2ccccc2c(-c2c(OC)cccc2OC)c2ccccc12

photoluminescence quantum yield (in CCCCC(CC)n1c2ccc(-n3c4ccccc4c4ccccc43)cc2c2cc(-n3c4ccccc4c4ccccc43)ccc21): 0.239 | photoluminescence quantum yield [1]: 0.365
SMILES: CC1(C)c2ccccc2N(c2cccc(S(=O)(=O)c3cccc(N4c5ccccc5C(C)(C)c5ccccc54)c3)c2)c2ccccc21

SMILES: O=C(O)C1=C(C(=O)O)C2=C[C@H]3c4ccccc4[C@]2([Se]1)c1ccccc13
photoluminescence quantum yield (in ClCCl): 0.38

SMILES: COc1ccc(-c2c3ccccc3c3n2[B-](F)(F)[N+]2=Cc4c5ccccc5c(-c5ccc(OC)cc5)n4[B-](F)(F)[N+]2=C3)cc1
photoluminescence quantum yield (in CC#N): 0.22 | photoluminescence quantum yield (in CCCCCC): 0.32 | photoluminescence quantum yield (in CN(C)C=O): 0.23 | photoluminescence quantum yield (in Cc1ccccc1): 0.31 | photoluminescence quantum yield (in ClCCl): 0.31

photoluminescence quantum yield (in ClCCl): 0.62
SMILES: CCCCn1c2ccccc2c2ccc(C#Cc3ccc4ccc5cccc6ccc3c4c56)cc21

photoluminescence quantum yield (in c1cc(-c2cccc(-n3c4ccccc4c4ccccc43)c2)cc(-n2c3ccccc3c3ccccc32)c1): 0.73 | photoluminescence quantum yield [1]: 0.73
SMILES: O=c1c2ccccc2n2c3ccc(-c4ccccc4)cc3c(=O)c3cccc1c32

photoluminescence quantum yield (in C1CCOC1): 0.061
SMILES: N#Cc1cc(-n2c3ccccc3c3ccccc32)c(-n2c3ccccc3c3cc(Br)ccc32)cc1C#N
photoluminescence quantum yield (in c1ccc2c(c1)c1ccccc1n2-c1ccc(-c2ccc(-n3c4ccccc4c4ccccc43)cc2)cc1): 0.555

photoluminescence quantum yield (in ClC(Cl)Cl): 0.827
SMILES: COc1ccc(-c2ccc(-c3c4c(nc5ccccc35)-c3cc5c(cc3CC4)-c3nc4ccccc4c(-c4ccc(-c6ccc(OC)cc6)cc4)c3CC5)cc2)cc1

photoluminescence quantum yield (in C1COCCO1): 0.52 | photoluminescence quantum yield (in CC#N): 0.42 | photoluminescence quantum yield (in CCCCOCCCC): 0.5 | photoluminescence quantum yield (in CCOC(C)=O): 0.44
SMILES: c1ccc(Nc2nc(Nc3ccccc3)nc(Nc3ccc4c5cccc6cccc(c7cccc3c74)c65)n2)cc1

SMILES: COCCC1=Cc2nc1ccc1[nH]c(cc1CCOC)c1nc(c(OC)cc3[nH]c2cc3CCOC)C(CCOC)=C1
photoluminescence quantum yield (in Cc1ccccc1): 0.18

photoluminescence quantum yield (in CCCCCC): 0.21
SMILES: CC(C)[Si](C#Cc1c2nc3c(nc2c(C#C[Si](C(C)C)(C(C)C)C(C)C)c2nc4ccccc4nc12)C1c2ccccc2C3c2ccccc21)(C(C)C)C(C)C

photoluminescence quantum yield (in CC#N): 0.17
SMILES: COc1ccc(-c2nc3c([nH]2)C2=CC(=O)S[C@]2(C)[C@@]2(C)SC(=O)C=C32)cc1

photoluminescence quantum yield (in ClCCl): 0.61
SMILES: Cc1nc(-c2cc(C(F)(F)F)ccc2O)n2c1CCCC2

photoluminescence quantum yield (in C1COCCO1): 0.45
SMILES: COc1ccc(C2=C/C(=C\c3ccc(C#N)cc3)C(=O)O2)cc1OC

SMILES: c1ccc(-c2nc(-c3ccccc3)nc(-c3ccc(-n4c5ccccc5c5ccc6c(c7ccccc7n6-c6ccccc6)c54)cc3)n2)cc1
photoluminescence quantum yield (in O=P(c1ccccc1)(c1ccccc1)c1ccc2oc3ccc(P(=O)(c4ccccc4)c4ccccc4)cc3c2c1): 0.9

photoluminescence quantum yield (in ClC(Cl)Cl): 0.36
SMILES: CC(C)c1cccc(C(C)C)c1-n1c(=O)c2ccc3c4ccc5c(=O)n(-c6c(C(C)C)cccc6C(C)C)c(=O)c6cc7c(-c8ccccn8)nc8cc(c1=O)c2c3c8c7c4c56

photoluminescence quantum yield (in CC1CCCCC1): 0.43 | photoluminescence quantum yield (in CC#N): 0.35
SMILES: C(=C\c1c2ccccc2cc2ccccc12)/c1cccc2ccccc12

SMILES: CC(C)[Si]1(C(C)C)c2cc(N(C)C)ccc2-c2ccc(C(F)(F)F)cc21
photoluminescence quantum yield (in C1CCCCC1): 0.37 | photoluminescence quantum yield (in CC#N): 0.4 | photoluminescence quantum yield (in CCO): 0.28 | photoluminescence quantum yield (in CCOCC): 0.35 | photoluminescence quantum yield (in CS(C)=O): 0.17 | photoluminescence quantum yield (in ClCCl): 0.33 | photoluminescence quantum yield (in c1ccccc1): 0.29

photoluminescence quantum yield (in CCO): 0.25 | photoluminescence quantum yield (in ClCCl): 0.28
SMILES: O=Cc1cnc(-c2c3ccccc3cc3ccccc23)nc1

photoluminescence quantum yield (in ClCCl): 0.14
SMILES: O=C(c1sc(-c2ccc(-c3cc(-c4cccs4)c(C(=O)N4CCOCC4)s3)s2)cc1-c1cccs1)N1CCOCC1

photoluminescence quantum yield (in C1CCOC1): 0.039
SMILES: O=Cc1ccc(C=C(c2ccccc2)c2ccccc2)cc1

SMILES: Cc1ccc(-c2ccc(/C=C/c3cccn3C)cn2)nc1
photoluminescence quantum yield (in C1COCCO1): 0.25 | photoluminescence quantum yield (in CC#N): 0.087 | photoluminescence quantum yield (in CCCCCC): 0.36 | photoluminescence quantum yield (in CCO): 0.2 | photoluminescence quantum yield (in CN(C)C=O): 0.19 | photoluminescence quantum yield (in CO): 0.18 | photoluminescence quantum yield (in CS(C)=O): 0.19 | photoluminescence quantum yield (in Cc1ccccc1): 0.25 | photoluminescence quantum yield (in ClC(Cl)Cl): 0.25 | photoluminescence quantum yield (in c1ccccc1): 0.25

photoluminescence quantum yield (in CCC(C)C): 0.16
SMILES: CCCCCCCCCCc1cc(-c2cc(CCCCCCCCCC)c(-c3cccs3)s2)sc1-c1cccs1

photoluminescence quantum yield (in ClCCl): 0.23
SMILES: CCN(CC)c1ccc2cc(-c3nc4cc(C(=O)Nc5ccccc5Cl)ccc4o3)c(=O)oc2c1

photoluminescence quantum yield (in C1COCCO1): 0.033
SMILES: CC(C)CN1C(=O)/C(=C/c2ccc([N+](=O)[O-])cc2)C=C1c1ccccc1

photoluminescence quantum yield (in C1CCOC1): 0.66 | photoluminescence quantum yield (in CN(C)C=O): 0.4
SMILES: O=C(O)c1c2ccccc2c(C(=O)O)c2ccccc12

photoluminescence quantum yield (in ClC(Cl)Cl): 0.18
SMILES: Cc1ccc(C2=C3C=CC4=[N+]3[P-](=O)(=O)n3c2ccc3-c2ccc([nH]2)/C(c2ccc(C)cc2)=c2/cc/c(o2)=C(\c2ccc(C)cc2)c2ccc4[nH]2)cc1

SMILES: CC(C)c1cc(C(C)C)c(-c2nnc(-c3ccc(-n4c5ccccc5c5ccccc54)cc3)o2)c(C(C)C)c1
photoluminescence quantum yield (in Cc1ccccc1): 0.61

photoluminescence quantum yield (in ClCCl): 0.42
SMILES: O=P1(c2ccccc2)C(c2ccc(C(F)(F)F)cc2)=Cc2cc3ccccc3cc21 (configuration not stated)

SMILES: CCC1=C(C)C2=Cc3c4ccccc4c4n3[B-](c3ccccc3)(Oc3ccccc3-4)[N+]2=C1C (configuration not stated)
photoluminescence quantum yield (in CC#N): 0.75 | photoluminescence quantum yield (in CCCCCC): 0.77 | photoluminescence quantum yield (in Cc1ccccc1): 0.64 | photoluminescence quantum yield (in ClCCl): 0.75

photoluminescence quantum yield (in CO): 0.15
SMILES: CC1(C)C(/C=C/C2=C(Oc3ccc(CCN=C=S)cc3I)C(=C/C=C3/N(CCCS(=O)(=O)[O-])c4ccccc4C3(C)C)/CCC2)=[N+](CCCS(=O)(=O)[O-])c2ccccc21
